Data reported in ChEMBL document CHEMBL1201862, “PubChem BioAssay data set” (2004).
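Tested at 5 concentrations; 48 h exposure; 96-well plates; endpoints linearly interpolated, else capped at highest concentration. GI50 is the concentration that inhibits growth by half.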 Active and inactive are the calls of the source. No stated cut-off is given here; in the data, active = GI50 up to about 1.1 µM and inactive = higher.

What was measured:
Assay in all cases: DTP human tumour cell line panel, 48 h
A549 = tested on: A549
DU-145 = tested on: DU-145
HCC 2998 = tested on: HCC 2998
HL-60 = tested on: HL-60
HT-29 = tested on: HT-29
Hs-578T = tested on: Hs-578T
KM12 = tested on: KM12
LOX IMVI = tested on: LOX IMVI
MDA-N = tested on: MDA-N
NCI-H460 = tested on: NCI-H460
NCI/ADR-RES = tested on: NCI/ADR-RES
OVCAR-4 = tested on: OVCAR-4
OVCAR-8 = tested on: OVCAR-8
SF-268 = tested on: SF-268
SK-MEL-2 = tested on: SK-MEL-2
SK-OV-3 = tested on: SK-OV-3
SN12C = tested on: SN12C
SNB-19 = tested on: SNB-19
SNB-75 = tested on: SNB-75
T47D = tested on: T47D

| SMILES | GI50 (A549) | GI50 (DU-145) | GI50 (HCC 2998) | GI50 (HL-60) | GI50 (HT-29) | GI50 (Hs-578T) | GI50 (KM12) | GI50 (LOX IMVI) | GI50 (MDA-N) | GI50 (NCI-H460) | GI50 (NCI/ADR-RES) | GI50 (OVCAR-4) | GI50 (OVCAR-8) | GI50 (SF-268) | GI50 (SK-MEL-2) | GI50 (SK-OV-3) | GI50 (SN12C) | GI50 (SNB-19) | GI50 (SNB-75) | GI50 (T47D) |
| --- | --- | --- | --- | --- | --- | --- | --- | --- | --- | --- | --- | --- | --- | --- | --- | --- | --- | --- | --- | --- |
| CCOC(=O)c1c(O)nc(O)c(CC)c1C | > 100 µM (inactive) | > 100 µM (inactive) | > 100 µM (inactive) | > 100 µM (inactive) | > 100 µM (inactive) | > 100 µM (inactive) | > 100 µM (inactive) | > 100 µM (inactive) | > 100 µM (inactive) | > 100 µM (inactive) | > 100 µM (inactive) | > 100 µM (inactive) | > 100 µM (inactive) | > 100 µM (inactive) | > 100 µM (inactive) | > 100 µM (inactive) | > 100 µM (inactive) | > 100 µM (inactive) | > 100 µM (inactive) | > 100 µM (inactive) |
| Nc1c(C(=O)O)nnc2ccc(Cl)cc12 | > 100 µM (inactive) | > 100 µM (inactive) | > 100 µM (inactive) | > 100 µM (inactive) | > 100 µM (inactive) | > 100 µM (inactive) | > 100 µM (inactive) | > 100 µM (inactive) | > 100 µM (inactive) | > 100 µM (inactive) | > 100 µM (inactive) | > 100 µM (inactive) | > 100 µM (inactive) | > 100 µM (inactive) | > 100 µM (inactive) | > 100 µM (inactive) | > 100 µM (inactive) | > 100 µM (inactive) | > 100 µM (inactive) | > 100 µM (inactive) |
| CCOC(=O)c1ccc(C(=O)/C(C#N)=C2\CCCN2)n1C | > 100 µM (inactive) | 95.1 µM (inactive) | > 100 µM (inactive) | 34.2 µM (inactive) | 79.4 µM (inactive) | > 100 µM (inactive) | > 100 µM (inactive) | 86.5 µM (inactive) | 34 µM (inactive) | > 100 µM (inactive) | 34.2 µM (inactive) | > 100 µM (inactive) | > 100 µM (inactive) | > 100 µM (inactive) | > 100 µM (inactive) | > 100 µM (inactive) | > 100 µM (inactive) | > 100 µM (inactive) | 24.7 µM (inactive) | 28.2 µM (inactive) |
| Cc1c2ccnc(C(=O)NCCN(C)C)c2cc2c3cc(O)ccc3n(C)c12 | 0.0173 µM (active) | 0.0649 µM (active) | 0.573 µM (active) | < 0.022 µM (active) | 0.479 µM (active) | 0.204 µM (active) | 0.678 µM (active) | 0.11 µM (active) | 0.286 µM (active) | < 0.01 µM (active) | 0.766 µM (active) | 0.537 µM (active) | 0.1 µM (active) | 0.0676 µM (active) | 0.499 µM (active) | 0.162 µM (active) | 0.0596 µM (active) | 0.184 µM (active) | 0.33 µM (active) | 0.321 µM (active) |
| Cc1nc2c(n1-c1ccc(Br)cc1)C(=O)c1ccccc1C2=O | 6.93 µM (inactive) | 58.2 µM (inactive) | 14 µM (inactive) | 0.783 µM (active) | 6.68 µM (inactive) | 7.78 µM (inactive) | 6.5 µM (inactive) | 2.62 µM (inactive) | 6.84 µM (inactive) | 1.44 µM (inactive) | 5.78 µM (inactive) | 14.8 µM (inactive) | 6.52 µM (inactive) | 5.21 µM (inactive) | 66.4 µM (inactive) | 42.2 µM (inactive) | 4.76 µM (inactive) | 3.6 µM (inactive) | 20 µM (inactive) | 19.3 µM (inactive) |
| CCOC(=O)CCC(NC(=O)c1ccc(Nc2cnc3cc(C(F)(F)F)ccc3n2)cc1)C(=O)OCC (centres undefined) | > 89.3 µM (inactive) | > 100 µM (inactive) | > 30.6 µM (inactive) | > 100 µM (inactive) | > 100 µM (inactive) | 6.21 µM (inactive) | 61.9 µM (inactive) | > 100 µM (inactive) | > 100 µM (inactive) | 12.6 µM (inactive) | > 100 µM (inactive) | 36.7 µM (inactive) | 27.2 µM (inactive) | 14.1 µM (inactive) | > 100 µM (inactive) | – | > 100 µM (inactive) | 11.7 µM (inactive) | 1.9 µM (inactive) | > 100 µM (inactive) |
| COc1cc(OC)c2nc(C)c3c(c2c1)SCC3 | 21.1 µM (inactive) | 44.8 µM (inactive) | 46.9 µM (inactive) | 78 µM (inactive) | 40.6 µM (inactive) | 19.8 µM (inactive) | 68.5 µM (inactive) | 32.7 µM (inactive) | 28.8 µM (inactive) | 23.7 µM (inactive) | 27.4 µM (inactive) | 18.8 µM (inactive) | 19 µM (inactive) | 19.4 µM (inactive) | 27.7 µM (inactive) | 27.7 µM (inactive) | 25.5 µM (inactive) | 15.6 µM (inactive) | – | 26.3 µM (inactive) |
| CC1=NN(c2cccc(Cl)c2)C2(SCC(=O)N2c2nc3ccccc3s2)/C1=C\c1ccccc1O (centres undefined) | – | 18.3 µM (inactive) | 21.6 µM (inactive) | 14.2 µM (inactive) | 23.4 µM (inactive) | 27.8 µM (inactive) | 19.7 µM (inactive) | 30.5 µM (inactive) | 22.3 µM (inactive) | 31.8 µM (inactive) | 19.7 µM (inactive) | 21.4 µM (inactive) | 18.1 µM (inactive) | 22.6 µM (inactive) | 17.6 µM (inactive) | 18.4 µM (inactive) | – | – | – | 3.99 µM (inactive) |
| CN(C)c1ccc(C2CC(C)(O)Oc3cc4c(cc32)OCO4)cc1 (centres undefined) | 43.7 µM (inactive) | > 100 µM (inactive) | 32.4 µM (inactive) | 46.3 µM (inactive) | 26.9 µM (inactive) | 61 µM (inactive) | 30 µM (inactive) | 31.6 µM (inactive) | 18.6 µM (inactive) | 40.9 µM (inactive) | 35.2 µM (inactive) | – | 29.5 µM (inactive) | 46.7 µM (inactive) | 22.2 µM (inactive) | 48.8 µM (inactive) | 25.4 µM (inactive) | 98.9 µM (inactive) | 25.3 µM (inactive) | 48.6 µM (inactive) |
| CCOC(=O)c1cc(C)n(CN(CCO)Cn2nc(C(=O)OCC)cc2C)n1 | 97.3 µM (inactive) | 25.5 µM (inactive) | 11.8 µM (inactive) | 34.2 µM (inactive) | 23.6 µM (inactive) | 97.7 µM (inactive) | 31.6 µM (inactive) | 27.5 µM (inactive) | 29.2 µM (inactive) | 66.5 µM (inactive) | 18.7 µM (inactive) | 33.4 µM (inactive) | 22.7 µM (inactive) | 34.9 µM (inactive) | 19.9 µM (inactive) | > 100 µM (inactive) | 27.4 µM (inactive) | 52.4 µM (inactive) | – | 24.5 µM (inactive) |
| Cc1ccc(C2SCC(=O)N2c2ccc(-c3ccc(-n4c(-c5ccccc5)nc5ccccc5c4=O)cc3)cc2)cc1 (centres undefined) | > 100 µM (inactive) | > 100 µM (inactive) | > 100 µM (inactive) | 31 µM (inactive) | 38.9 µM (inactive) | 55.5 µM (inactive) | 55.8 µM (inactive) | 54.1 µM (inactive) | 80 µM (inactive) | 59.6 µM (inactive) | 91.4 µM (inactive) | 51.3 µM (inactive) | > 100 µM (inactive) | 33.8 µM (inactive) | > 100 µM (inactive) | > 100 µM (inactive) | 86.5 µM (inactive) | > 100 µM (inactive) | – | 24.8 µM (inactive) |
| CCCCCCCCC(=O)NCCN(CCN)C(=O)CCCCCCCC | 13.1 µM (inactive) | 13.6 µM (inactive) | 6.14 µM (inactive) | 0.65 µM (active) | 3.3 µM (inactive) | 8.38 µM (inactive) | 2.48 µM (inactive) | 3.85 µM (inactive) | 5.6 µM (inactive) | 5.86 µM (inactive) | 13.1 µM (inactive) | 8.17 µM (inactive) | 10.7 µM (inactive) | 6.87 µM (inactive) | 15.1 µM (inactive) | 15.5 µM (inactive) | 10.8 µM (inactive) | 8.55 µM (inactive) | 7 µM (inactive) | 14.9 µM (inactive) |
| CC(C)(O)C1CC[C@]2(C)[C@H]3CC[C@@H]4[C@@]5(C)CCCC(C)(C)[C@@H]5CC[C@@]4(C)[C@]3(C)CC[C@@H]12 (some centres undefined) | > 100 µM (inactive) | > 100 µM (inactive) | > 100 µM (inactive) | > 100 µM (inactive) | > 100 µM (inactive) | > 100 µM (inactive) | > 100 µM (inactive) | > 100 µM (inactive) | > 100 µM (inactive) | > 100 µM (inactive) | > 100 µM (inactive) | > 100 µM (inactive) | > 100 µM (inactive) | > 100 µM (inactive) | > 100 µM (inactive) | > 100 µM (inactive) | > 100 µM (inactive) | > 100 µM (inactive) | – | > 100 µM (inactive) |
| COc1cc(/C=C2\CCC/C(=C\c3ccc(O)c(OC)c3)C2=O)ccc1O [CYCLOVALONE] | 2.73 µM (inactive) | 3.47 µM (inactive) | 2.77 µM (inactive) | 1.47 µM (inactive) | 7.6 µM (inactive) | 4.16 µM (inactive) | 2.87 µM (inactive) | 1.67 µM (inactive) | 2.42 µM (inactive) | 2.59 µM (inactive) | 2.91 µM (inactive) | 7.35 µM (inactive) | 1.72 µM (inactive) | 2.39 µM (inactive) | 3.56 µM (inactive) | 3.73 µM (inactive) | 2.38 µM (inactive) | 6.15 µM (inactive) | – | 3.29 µM (inactive) |
